Source: the Kinase Knowledgebase extract (Sharma et al. 2016)

These molecules were tested against MAPK14 (human) (UniProt Q16539) (assay: Inhibition of MAPK14 Kinase Activity).
Chain of MAPK14 (human) (Q16539 whole entry, looked up): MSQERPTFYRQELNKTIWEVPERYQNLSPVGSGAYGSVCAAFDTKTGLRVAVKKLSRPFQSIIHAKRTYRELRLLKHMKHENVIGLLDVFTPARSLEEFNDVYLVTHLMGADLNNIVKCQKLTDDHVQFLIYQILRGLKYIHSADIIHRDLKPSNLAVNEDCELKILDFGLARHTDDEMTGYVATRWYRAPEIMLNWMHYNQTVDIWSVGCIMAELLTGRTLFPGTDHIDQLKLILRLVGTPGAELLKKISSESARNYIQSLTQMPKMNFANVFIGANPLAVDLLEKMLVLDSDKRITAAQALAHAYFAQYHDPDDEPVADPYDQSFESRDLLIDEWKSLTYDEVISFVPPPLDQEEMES

| SMILES | IC50 |
| --- | --- |
| COCCn1c(SC)nc(-c2ccc(F)cc2)c1-c1ccnc(NC(=O)CCc2ccc(S(C)(=O)=O)cc2)c1 | 220 nM |
| COCCn1c(SC)nc(-c2ccc(F)cc2)c1-c1ccnc(NC(=O)C(Oc2ccccc2)C(C)C)c1 (stereo not given) | 195 nM |
| COCCn1c(SC)nc(-c2ccc(F)cc2)c1-c1ccnc(NCC(C)c2ccccc2)c1 (stereo not given) | 35 nM |
| COCCn1c(SC)nc(-c2ccc(F)cc2)c1-c1ccnc(NC(=O)Cc2ccccc2)c1 | 386 nM |
| COCCn1c(SC)nc(-c2ccc(F)cc2)c1-c1ccnc(NC(=O)CCc2ccc(C)cc2)c1 | 90 nM |
| COCCn1c(SC)nc(-c2ccc(F)cc2)c1-c1ccnc(NC(=O)[C@H]2C[C@@H]2c2ccccc2)c1 | 168 nM |
| COCCn1c(SC)nc(-c2ccc(F)cc2)c1-c1ccnc(NC(=O)C(C)Cc2ccccc2)c1 (stereo not given) | 77 nM |
| COCCn1c(SC)nc(-c2ccc(F)cc2)c1-c1ccnc(NC(=O)CC2CCCCC2)c1 | 219 nM |
| COCCn1c(SC)nc(-c2ccc(F)cc2)c1-c1ccnc(NC(=O)CC2CCCC2)c1 | 108 nM |
| COCCn1c(SC)nc(-c2ccc(F)cc2)c1-c1ccnc(NC(=O)CCc2cc(OC)c(OC)c(OC)c2)c1 | 123 nM |
| COCCn1c(SC)nc(-c2ccc(F)cc2)c1-c1ccnc(NC(=O)C(C)(C)C)c1 | 1760 nM |
| COCCn1c(SC)nc(-c2ccc(F)cc2)c1-c1ccnc(NC(=O)CCCc2ccc(OC)cc2)c1 | 97 nM |
| COCCn1c(SC)nc(-c2ccc(F)cc2)c1-c1ccnc(NC(=O)/C=C/c2ccccc2)c1 | 193 nM |
| COCCn1c(SC)nc(-c2ccc(F)cc2)c1-c1ccnc(NC(=O)C[C@@H](C)c2ccccc2)c1 | 114 nM |
| COCCn1c(SC)nc(-c2ccc(F)cc2)c1-c1ccnc(NC(=O)CC(C)C)c1 | 103 nM |
| COCCn1c(SC)nc(-c2ccc(F)cc2)c1-c1ccnc(N)c1 | 1420 nM |
| COCCn1c(SC)nc(-c2ccc(F)cc2)c1-c1ccnc(NC(=O)Cc2ccc(OC)cc2)c1 | 213 nM |
| COCCn1c(SC)nc(-c2ccc(F)cc2)c1-c1ccnc(NC(=O)CCc2ccc(OC)cc2OC)c1 | 178 nM |
| COCCn1c(SC)nc(-c2ccc(F)cc2)c1-c1ccnc(NC(=O)c2ccc(OC)cc2)c1 | 392 nM |
| COCCn1c(SC)nc(-c2ccc(F)cc2)c1-c1ccnc(NC(=O)C2CC2)c1 | 128 nM |
| COCCn1c(SC)nc(-c2ccc(F)cc2)c1-c1ccnc(NC(=O)CCc2cccc(OC)c2)c1 | 93 nM |
| CCCCC(=O)Nc1cc(-c2c(-c3ccc(F)cc3)nc(SC)n2CCOC)ccn1 | 83 nM |
| COCCn1c(SC)nc(-c2ccc(F)cc2)c1-c1ccnc(NC(=O)CCc2cccc(OC)c2OC)c1 | 91 nM |

| SMILES | IC50 |
| --- | --- |
| COCCn1c(SC)nc(-c2ccc(F)cc2)c1-c1ccnc(NC(=O)C2CCC2)c1 | 116 nM |
| COCCn1c(SC)nc(-c2ccc(F)cc2)c1-c1ccnc(NC(C)=O)c1 | 108 nM |
| COCCn1c(SC)nc(-c2ccc(F)cc2)c1-c1ccnc(NC(=O)C2CCCCC2)c1 | 156 nM |
| CCC(C)C(=O)Nc1cc(-c2c(-c3ccc(F)cc3)nc(SC)n2CCOC)ccn1 (stereo not given) | 311 nM |
| COCCn1c(SC)nc(-c2ccc(F)cc2)c1-c1ccnc(NC(=O)CCc2ccc(OC)c(OC)c2)c1 | 216 nM |
| COCCn1c(SC)nc(-c2ccc(F)cc2)c1-c1ccnc(NC(=O)C[C@H](C)c2ccccc2)c1 | 133 nM |
| COCCn1c(SC)nc(-c2ccc(F)cc2)c1-c1ccnc(NC(=O)C2CCCC2)c1 | 458 nM |
| COCCn1c(SC)nc(-c2ccc(F)cc2)c1-c1ccnc(NC(=O)CCc2ccc(SC)cc2)c1 | 254 nM |
| COCCn1c(SC)nc(-c2ccc(F)cc2)c1-c1ccnc(NC(=O)CCc2ccccc2OC)c1 | 93 nM |
| COCCn1c(SC)nc(-c2ccc(F)cc2)c1-c1ccnc(NC(=O)CCC2CCCC2)c1 | 224 nM |
| COCCn1c(SC)nc(-c2ccc(F)cc2)c1-c1ccnc(NC(=O)CCCCc2ccccc2)c1 | 115 nM |
| COCCn1c(SC)nc(-c2ccc(F)cc2)c1-c1ccnc(NC(=O)CCc2ccc(OC)c(OC)c2OC)c1 | 84 nM |
| COCCn1c(SC)nc(-c2ccc(F)cc2)c1-c1ccnc(NC(=O)CCCc2ccccc2)c1 | 115 nM |
| COCCn1c(SC)nc(-c2ccc(F)cc2)c1-c1ccnc(NC(=O)CC(C)c2ccccc2)c1 (stereo not given) | 60 nM |
| COCCn1c(SC)nc(-c2ccc(F)cc2)c1-c1ccnc(NC(=O)CCc2ccc(C(C)(C)C)cc2)c1 | 2450 nM |
| COCCn1c(SC)nc(-c2ccc(F)cc2)c1-c1ccnc(NC(=O)CCC(C)C)c1 | 179 nM |
| COCCn1c(SC)nc(-c2ccc(F)cc2)c1-c1ccnc(NC(=O)c2ccccc2)c1 | 244 nM |
| COCCn1c(SC)nc(-c2ccc(F)cc2)c1-c1ccnc(NC(=O)CCc2ccc(OC)cc2)c1 | 48 nM |
| COCCn1c(SC)nc(-c2ccc(F)cc2)c1-c1ccnc(NCCc2ccccc2)c1 | 26 nM |
| COCCn1c(SC)nc(-c2ccc(F)cc2)c1-c1ccnc(NC(=O)CCC2CCCCC2)c1 | 196 nM |
| COCCn1c(SC)nc(-c2ccc(F)cc2)c1-c1ccnc(NC(=O)C(C)Oc2ccccc2)c1 (stereo not given) | 103 nM |
| COCCn1c(SC)nc(-c2ccc(F)cc2)c1-c1ccnc(NC(=O)CCc2ccccc2)c1 | 63 nM |
